From ChEMBL document CHEMBL3286296, “Design and synthesis of phenylisoxazole derivatives as novel human acrosin inhibitors” (Bioorg Med Chem Lett, 2014) come the findings set out here.

Assay [1] has as its target T1, Acrosin (Homo sapiens, UniProt P10323). As to the kind of experiment: Inhibition of human acrosin using N-alpha-benzoyl-L-arginine p-nitroanilide as substrate after 3 hrs by spectrophotometry.
For assay [2], the target named is T1, Acrosin. As to the kind of experiment: Ratio of ISO-1 IC50 to compound IC50 for human acrosin using N-alpha-benzoyl-L-arginine p-nitroanilide as substrate after 3 hrs by spectrophotometry.
The nature of assay [3]: Inhibition of pig trypsin. Further details: species or system Sus scrofa.

Some results are limits rather than exact numbers.

T1 sequence (P10323 20-42 limits assumed): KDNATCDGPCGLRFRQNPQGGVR
T1 sequence (P10323 43-343 limits assumed): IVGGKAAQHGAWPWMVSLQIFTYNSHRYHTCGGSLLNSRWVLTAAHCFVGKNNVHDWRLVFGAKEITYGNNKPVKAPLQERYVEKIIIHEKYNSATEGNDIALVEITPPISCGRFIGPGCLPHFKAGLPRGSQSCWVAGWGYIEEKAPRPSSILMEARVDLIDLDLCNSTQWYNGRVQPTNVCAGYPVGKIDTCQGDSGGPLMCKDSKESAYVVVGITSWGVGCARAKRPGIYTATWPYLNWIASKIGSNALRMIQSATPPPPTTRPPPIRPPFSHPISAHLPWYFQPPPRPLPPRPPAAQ

Regarding `N=C(N)Nc1ccc(-c2cc(C(=O)Nc3ccc(C(F)(F)F)cc3)no2)cc1`, the IC50 at Acrosin [1] was 20.3 µM.
`CCOC(=O)c1ccc(NC(=O)c2cc(-c3ccc(NC(=N)N)cc3)on2)cc1` returned a concentration for half-maximal inhibition (IC50) against Acrosin [1] of 9.3 µM.
On Acrosin [1], `Cc1ccnc(NC(=O)c2cc(-c3ccc(NC(=N)N)cc3)on2)c1` showed an IC50 of 21.4 µM.
`N=C(N)Nc1ccc(-c2cc(C(=O)Nc3ccccc3Br)no2)cc1` had an IC50 on Acrosin [1] of 27.9 µM.
`Cc1cccc(NC(=O)c2cc(-c3ccc(NC(=N)N)cc3)on2)c1C` returned an IC50 against Acrosin [1] of 11.5 µM.
With `N=C(N)Nc1ccc(-c2cc(C(=O)Nc3cccc(Br)c3)no2)cc1`, inhibition at Acrosin [1] was half-maximal at 14.4 µM (IC50).
In turn, `N=C(N)Nc1ccc(-c2cc(C(=O)Nc3cccc(Cl)c3)no2)cc1` displayed an IC50 on Acrosin [1] of 25.4 µM.
With `N=C(N)Nc1ccc(-c2cc(C(=O)Nc3ccc(Cl)cc3)no2)cc1`, the IC50 on Acrosin [1] is 26.8 µM. This IC50 and that of the compound before are within 1.5-fold of each other.
On Acrosin [1], `CCOC(=O)c1cc(-c2ccc(NC(=O)c3ccc(F)cc3)cc2)on1` came in with an IC50 of 140 µM.
At Acrosin [1], `N#Cc1ccc(NC(=O)c2cc(-c3ccc(NC(=N)N)cc3)on2)cc1` yielded an IC50 of 23.9 µM.
On Acrosin [1], `N=C(N)Nc1ccc(-c2cc(C(=O)Nc3ccccc3)no2)cc1` came in with an IC50 of 24.6 µM.
In turn, `COc1ccc(OC)c(NC(=O)c2cc(-c3ccc(NC(=N)N)cc3)on2)c1` showed an IC50 against Acrosin [1] of 2.3 µM.
As for `Cc1ccccc1NC(=O)c1cc(-c2ccc(NC(=N)N)cc2)on1`, 14.4 µM corresponded to half-maximal inhibition on Acrosin [1] (IC50).
As for `Cc1ccc(NC(=O)c2cc(-c3ccc(NC(=N)N)cc3)on2)cc1`, the IC50 against Acrosin [1] was found to be 10.1 µM.
As to `CC(CO)NC(=O)c1cc(-c2ccc(NC(=N)N)cc2)on1` (configuration not stated), the IC50 on Acrosin [1] is above 100 µM.
For the compound `CCOC(=O)c1cc(-c2ccc(NC(=O)c3ccccc3Cl)cc2)on1`, the Ratio IC50 at Acrosin [2] came out at 6. This compound came in with an IC50 against Acrosin [1] of 60 µM.
On to `CCOC(=O)c1cc(-c2ccc(NC(=O)c3ccc(Cl)cc3)cc2)on1`, for which half-maximal inhibition against Acrosin [1] (IC50) required 380 µM.
In the case of `COc1ccccc1NC(=O)c1cc(-c2ccc(NC(=N)N)cc2)on1`, half-maximal inhibition on Acrosin [1] (IC50) required 8.4 µM. This IC50 is about 45-fold lower than that of the compound before.
In turn, `N=C(N)Nc1ccc(-c2cc(C(=O)Nc3ccc(F)cc3)no2)cc1` had a concentration for half-maximal inhibition (IC50) at Acrosin [1] of 20.5 µM.
At Acrosin [1], `CC(C)(C)c1ccc(NC(=O)c2cc(-c3ccc(NC(=N)N)cc3)on2)cc1` had an IC50 of 7.8 µM.
Take `CCOC(=O)c1cc(-c2ccc(NC(=O)c3ccccc3)cc2)on1`: on Acrosin [1], the IC50 was 460 µM.
Turning to `COc1ccc(NC(=O)c2cc(-c3ccc(NC(=N)N)cc3)on2)c(OC)c1`, the concentration for half-maximal inhibition (IC50) on Acrosin [1] came out at 1.4 µM; in assay [3], 4200 µM.
Take `Cc1cccc(C)c1NC(=O)c1cc(-c2ccc(NC(=N)N)cc2)on1`: on Acrosin [1], the IC50 was found to be 5.7 µM.
As for `N=C(N)Nc1ccc(-c2cc(C(=O)Nc3cccc4ccccc34)no2)cc1`, at Acrosin [1], the IC50 worked out at 29.9 µM.
At Acrosin [1], `CC(C)NC(=O)c1cc(-c2ccc(NC(=N)N)cc2)on1` gave an IC50 above 100 µM.
In the case of `Cc1cc(C)cc(NC(=O)c2cc(-c3ccc(NC(=N)N)cc3)on2)c1`, 12.1 µM corresponded to half-maximal inhibition against Acrosin [1] (IC50).
In the case of `COc1cccc(NC(=O)c2cc(-c3ccc(NC(=N)N)cc3)on2)c1`, the IC50 at Acrosin [1] worked out at 6.6 µM.
Turning to `CCOC(=O)c1cc(-c2ccc(NC(=O)c3ccc(Cl)c(Cl)c3)cc2)on1`, the IC50 against Acrosin [1] turned out to be 240 µM.
At Acrosin [1], `Cc1cccc(NC(=O)c2cc(-c3ccc(NC(=N)N)cc3)on2)c1` came in with a half-inhibitory concentration (IC50) of 9.4 µM.
`CCOc1ccc(NC(=O)c2cc(-c3ccc(NC(=N)N)cc3)on2)cc1`: on Acrosin [1], the IC50 amounted to 6.4 µM.
